Reference: patent publication EP0326331B1, “Substituted quinolines and cinnolines” (Dow AgroSciences LLC, priority 1988, dated 1989)

Assays:
Assay type in all cases: in vivo
[1] = system: Botrytis cinerea (gray mold); test: Test 1 greenhouse foliar spray screen, gray mold on grape berries; settings: disease control rating, spray on grape berries, 400 ppm (+++ at 100 ppm)
[2] = system: Pyricularia oryzae (rice blast); test: whole plant or invertebrate; settings: disease control rating, foliar spray on rice, 400 ppm (+++ at 100 ppm)
[3] = system: Erysiphe graminis tritici (powdery mildew); test: Test 1 greenhouse foliar spray screen, powdery mildew on wheat; settings: disease control rating, foliar spray on wheat, 400 ppm (+++ at 100 ppm)
[4] = system: Puccinia recondita tritici (leaf rust); test: Test 1 greenhouse foliar spray screen, leaf rust on wheat; settings: disease control rating, foliar spray on wheat, 400 ppm (+++ at 100 ppm)
[5] = system: Venturia inaequalis (apple scab); test: Test 1 greenhouse foliar spray screen, apple scab on apple seedling; settings: disease control rating, foliar spray on apple seedling, 400 ppm (+++ at 100 ppm)
[6] = system: Twospotted spider mites (Tetranychus urticae Koch); test: Mite/insect screen, SM; settings: percent mortality, SAW, SM & MA RATE 200 PPM; for mortality at 200 ppm: Tetranychus urticae, read-out: SM RESULTS %
Outline: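 Read-out: percent mortality after standard exposure periods. Test solutions were water dilutions of compound dissolved in acetone/alcohol (50:50) with emulsifier blends; leaves were sprayed to runoff on both surfaces and air-dried for one hour before exposure.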

corn rootworm = test: Mite/insect screen, CRW; settings: percent mortality, CRW RATE 12.00 PPM; for mortality at 12 ppm: read-out: CRW RESULTS %
Outline: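 Corn rootworm mortality (%) was evaluated following standard exposure times. Test material was emulsified by dissolution in acetone/alcohol (1:1) containing sulfonate/nonionic emulsifier blends TOXIMUL R (23 g/L) and TOXIMUL S (13 g/L), and water-diluted to the indicated doses.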

[7] = system: melon aphids (Aphis gossypii Glover); test: Mite/insect screen, MA; settings: percent mortality, SAW, SM & MA RATE 200 PPM; for mortality at 200 ppm: Aphis gossypii, read-out: MA RESULTS %
Outline: (§1)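 Percent mortality was scored after standard exposure periods, following spraying of leaves to runoff (both surfaces, 10 psi, 1 h drying) with water dilutions of compound in emulsifier-containing acetone/alcohol (50:50). Armyworms received excised treated leaves in dishes.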

[8] = system: Pseudoperonospora cubensis (downy mildew); test: Test 1 greenhouse foliar spray screen, downy mildew on squash; settings: disease control rating, foliar spray on squash, 400 ppm (+++ at 100 ppm)
[9] = system: Cercospora beticola (leaf spot); test: Test 1 greenhouse foliar spray screen, leaf spot on sugar beet; settings: disease control rating, foliar spray on sugar beet, 400 ppm (+++ at 100 ppm)
[10] = system: Septoria tritici (leaf blotch); test: Test 1 greenhouse foliar spray screen, leaf blotch on wheat; settings: disease control rating, foliar spray on wheat, 400 ppm (+++ at 100 ppm)
[11] = system: southern armyworm (Spodopetra eridania Cramer); test: Mite/insect screen, SAW; settings: Spodoptera eridania, percent mortality; SAW, SM & MA RATE 200 PPM; read-out: SAW RESULTS %
Outline: as §1

Row | SMILES | GRAY MOLD [1] | RICE BLAST [2] | POWD MDEW [3] | LEAF RUST [4] | APPL SCAB [5] | mortality at 200 ppm [6] [%] | mortality at 12 ppm (corn rootworm) [%] | mortality at 200 ppm [7] [%] | DOWN MDEW [8] | LEAF SPOT [9] | LEAF BLOT [10] | mortality at 200 ppm [11] [%] | SM RESULTS % [6] [%] | CRW RESULTS % (corn rootworm) [%] | MA RESULTS % [7] [%]
1 | FC(F)(F)c1cc(C(F)(F)F)c2c(NCCc3ccccc3)ccnc2c1 [Example 70, N-(2-phenylethyl)-5,7-bis-(trifluoromethyl)-4-quinolinamine] | - (0-19% control at 400 ppm) | + (20-89% control at 400 ppm) | +++ (90-100% control at 100 ppm) | + (20-89% control at 400 ppm) | - (0-19% control at 400 ppm) | 0 | 0 | 0 | - (0-19% control at 400 ppm) | - (0-19% control at 400 ppm) | - (0-19% control at 400 ppm) | 0 | – | – | –
2 | OCc1cnc2c(F)cccc2c1NCCc1ccccc1 [Example 73, 8-fluoro-4-[(2-phenylethyl)amino]-3-quinolinemethanol] | - (0-19% control at 400 ppm) | + (20-89% control at 400 ppm) | - (0-19% control at 400 ppm) | - (0-19% control at 400 ppm) | - (0-19% control at 400 ppm) | 0 | 0 | 0 | ++ (90-100% control at 400 ppm) | - (0-19% control at 400 ppm) | - (0-19% control at 400 ppm) | 0 | – | – | –
3 | Fc1cccc2c(NCCc3ccc(Cl)c(Cl)c3)ccnc12 [Example 75, N-[2-(3,4-dichlorophenyl)ethyl]-8-fluoro-4-quinolinamine] | - (0-19% control at 400 ppm) | + (20-89% control at 400 ppm) | + (20-89% control at 400 ppm) | ++ (90-100% control at 400 ppm) | - (0-19% control at 400 ppm) | 0 | 0 | 0 | +++ (90-100% control at 100 ppm) | - (0-19% control at 400 ppm) | + (20-89% control at 400 ppm) | 0 | – | – | –
4 | CC(CNc1ccnc2c(F)cccc12)c1ccccc1 (stereo not drawn) [Example 77, 8-fluoro-N-(2-phenylpropyl)-4-quinolinamine] | - (0-19% control at 400 ppm) | + (20-89% control at 400 ppm) | + (20-89% control at 400 ppm) | ++ (90-100% control at 400 ppm) | + (20-89% control at 400 ppm) | 0 | 0 | 0 | +++ (90-100% control at 100 ppm) | - (0-19% control at 400 ppm) | - (0-19% control at 400 ppm) | 0 | – | – | –
5 | Fc1ccc(CCNc2ccnc3c(F)cccc23)cc1 [Example 78, 8-fluoro-N-[2-(4-fluorophenyl)ethyl]-4-quinolinamine] | - (0-19% control at 400 ppm) | ++ (90-100% control at 400 ppm) | + (20-89% control at 400 ppm) | +++ (90-100% control at 100 ppm) | - (0-19% control at 400 ppm) | 0 | 0 | 0 | +++ (90-100% control at 100 ppm) | +++ (90-100% control at 100 ppm) | + (20-89% control at 400 ppm) | 20 | 0 | 0 | 0
